#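 Five compound concentrations were applied to cells in 96-well plates for 48 hours; endpoints were derived by simple linear interpolation of the resulting dose-response curve. The concentration for 50% growth inhibition is given as GI50. TGI: concentration producing complete growth inhibition.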
# Experiments:
# Assay in all cases: growth of human tumour cells (NCI), 48 h
# [1] = tested on: HCT-15 colon
# [2] = tested on: A549 NSCLC
# [3] = tested on: HOP-62 NSCLC
# [4] = tested on: CAKI-1 renal
# [5] = tested on: HS 578T breast
# [6] = tested on: SNB-75 CNS
# [7] = tested on: EKVX NSCLC
# [8] = tested on: OVCAR-4 ovarian
SMILES,GI50 [1],TGI [1],GI50 [2],TGI [2],GI50 [3],TGI [3],GI50 [4],TGI [4],GI50 [5],TGI [5],GI50 [6],TGI [6],GI50 [7],TGI [7],GI50 [8],TGI [8]
O=C(CC(=O)c1ccccc1)c1ccccc1,2.06 µM,6.82 µM,26.9 µM,69.5 µM,7.72 µM,39.6 µM,20.1 µM,66 µM,25.4 µM,> 100 µM,22.9 µM,> 100 µM,11.2 µM,38 µM,27.9 µM,> 100 µM
CCCCOc1ccc(/C=N/Nc2cc(C)nc3ccc(Cl)cc23)cc1,1.35 µM,2.74 µM,1.86 µM,3.44 µM,1.62 µM,3.28 µM,1.68 µM,3.07 µM,–,–,1.75 µM,3.33 µM,1.63 µM,3.01 µM,1.56 µM,3 µM
CO[C@H](C(=O)O)[C@@H]1Cc2cc3cc(OC4CC(OC5CC(O)C(O)C(C)O5)C(O)C(C)O4)c(C)c(O)c3c(O)c2C(=O)[C@H]1OC1CC(OC2CC(OC3CC(C)(O)C(O)C(C)O3)C(O)C(C)O2)C(O)C(C)O1 (stereo partly specified),1.66 µM,> 32.5 µM,0.257 µM,> 32.5 µM,0.211 µM,> 32.5 µM,0.598 µM,> 32.5 µM,0.161 µM,> 32.5 µM,0.128 µM,0.741 µM,0.57 µM,> 32.5 µM,0.607 µM,> 32.5 µM
CC[C@H](NC(=O)[C@H](CS(=O)(=O)CC1CC1)N[C@@H](c1ccc(F)cc1)C(F)(F)F)C(=O)C(=O)NC1CC1,> 100 µM,> 100 µM,> 100 µM,> 100 µM,> 100 µM,> 100 µM,> 100 µM,> 100 µM,> 100 µM,> 100 µM,> 100 µM,> 100 µM,90.3 µM,> 100 µM,82.9 µM,> 100 µM
O=c1c2c3c(sc2n2c(-c4ccc(Br)cc4)nnc2n1Cc1ccccc1)CCCC3,4.39 µM,17.8 µM,12.4 µM,24.8 µM,3.97 µM,17.6 µM,6.02 µM,22.4 µM,11.9 µM,36.6 µM,7.99 µM,22.1 µM,10.6 µM,23.4 µM,6.03 µM,22.4 µM
COc1ccc(NC(=O)/C=C(C)/C=C/C=C(C)\C=C\C2=C(C)CCCC2(C)C)cc1,> 100 µM,> 100 µM,87.9 µM,> 100 µM,> 100 µM,> 100 µM,–,–,9.02 µM,96.7 µM,2.15 µM,> 100 µM,79 µM,> 100 µM,34.8 µM,> 100 µM
Cn1ncc(-c2ccc3c(=O)[nH]nc(CN)c3c2)c1-c1c(F)cc2ccccc2c1C#N,4.92 µM,19.1 µM,5.14 µM,18.3 µM,6.31 µM,20.3 µM,5.53 µM,19 µM,8.18 µM,28.7 µM,4.44 µM,19.5 µM,11.9 µM,25.1 µM,7.67 µM,25.2 µM
COc1cc([C@@H]2c3cc4c(cc3C[C@H]3COC(=O)[C@@H]32)OCO4)cc2c1OCO2,–,> 100 µM,–,> 100 µM,–,> 82 µM,–,–,–,–,–,> 100 µM,–,> 100 µM,–,> 100 µM
C#Cc1cc2c(N)c(C(=O)c3cc(OC)c(OC)c(OC)c3)[nH]c2cc1OC,0.46 µM,> 100 µM,0.729 µM,> 100 µM,0.58 µM,> 100 µM,0.573 µM,> 100 µM,1.34 µM,> 100 µM,0.208 µM,1.18 µM,–,–,0.987 µM,> 100 µM
CC(C)(C)C(=O)OCc1nc2cc3c(cc2c(=O)[nH]1)CCC3=O,> 100 µM,> 100 µM,> 100 µM,> 100 µM,> 100 µM,> 100 µM,> 100 µM,> 100 µM,> 100 µM,> 100 µM,> 100 µM,> 100 µM,–,–,> 100 µM,> 100 µM
C#CCN(Cc1nc2cc(C(F)(F)F)ccc2nc1-c1ccccc1)c1ccc(F)c(F)c1,37.4 µM,> 100 µM,19.8 µM,82.1 µM,> 100 µM,> 100 µM,–,–,45.5 µM,> 100 µM,> 100 µM,> 100 µM,17 µM,57.2 µM,> 100 µM,> 100 µM
Cc1ncc([N+](=O)[O-])n1CCNC(=O)CCCCCn1ccnc1[N+](=O)[O-],–,> 100 µM,–,> 100 µM,–,> 100 µM,–,> 100 µM,–,> 100 µM,–,> 100 µM,–,–,–,–
Cc1cc(O)cc2c1c(=O)c1ccccc1n2C,–,> 100 µM,–,> 100 µM,–,–,–,> 100 µM,–,> 100 µM,–,> 100 µM,–,> 100 µM,–,> 100 µM
Nc1c(C(=O)Nc2cccc(Br)c2)sc2nc3c(cc12)C(O)CCC3 (stereo unspecified),0.35 µM,> 100 µM,0.494 µM,22 µM,0.575 µM,48.3 µM,0.439 µM,> 100 µM,0.395 µM,12.7 µM,0.359 µM,17.5 µM,–,–,3.14 µM,66 µM
COc1cc2c(cc1OC)-c1ncc3cc4c(cc3c1C2)OCO4,> 100 µM,> 100 µM,34.2 µM,> 100 µM,–,–,38.5 µM,> 100 µM,–,–,64.1 µM,> 100 µM,22 µM,72.3 µM,57.3 µM,> 100 µM
N#Cc1cccc(OCc2ccccc2COc2cccc(C#N)c2)c1,> 100 µM,> 100 µM,42.5 µM,> 100 µM,–,–,11.1 µM,25.1 µM,30.9 µM,70.5 µM,29.7 µM,70.4 µM,28.3 µM,69.2 µM,54.8 µM,> 100 µM
Cc1nnc(-c2ccc(-c3nc4ccccc4o3)cc2)o1,70.8 µM,> 100 µM,26.1 µM,> 100 µM,42.8 µM,> 100 µM,> 100 µM,> 100 µM,95.1 µM,> 100 µM,–,–,85 µM,> 100 µM,–,–

# — PubChem BioAssay (NCI)
